Test results taken from PubChem BioAssay (NCI).
Where “and” joins values, the source holds several entries; their conditions need not be identical. Equal values may be shown once.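 Following 48 hours of exposure in 96-well plates, responses at five concentrations were used to interpolate endpoints linearly. GI50 is the concentration that inhibits growth by half. TGI marks complete inhibition of growth.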

Columns and labels:
Assay in all cases: NCI tumour cell line growth inhibition, 48 h
A549 NSCLC = test system: A549 NSCLC
MALME-3M melanoma = test system: MALME-3M melanoma
RXF 393 renal = test system: RXF 393 renal
SF-268 CNS = test system: SF-268 CNS
SF-295 CNS = test system: SF-295 CNS
SNB-19 CNS = test system: SNB-19 CNS
SW-620 colon = test system: SW-620 colon
BT-549 breast = test system: BT-549 breast
DU-145 prostate = test system: DU-145 prostate
SK-MEL-2 melanoma = test system: SK-MEL-2 melanoma

| SMILES | TGI (A549 NSCLC) | TGI (MALME-3M melanoma) | TGI (RXF 393 renal) | TGI (SF-268 CNS) | TGI (SF-295 CNS) | TGI (SNB-19 CNS) | TGI (SW-620 colon) | TGI (BT-549 breast) | TGI (DU-145 prostate) | GI50 (A549 NSCLC) | GI50 (BT-549 breast) | GI50 (DU-145 prostate) | GI50 (SF-268 CNS) | GI50 (SF-295 CNS) | TGI (SK-MEL-2 melanoma) | GI50 (SNB-19 CNS) | GI50 (SW-620 colon) | GI50 (RXF 393 renal) | GI50 (SK-MEL-2 melanoma) | GI50 (MALME-3M melanoma) |
| --- | --- | --- | --- | --- | --- | --- | --- | --- | --- | --- | --- | --- | --- | --- | --- | --- | --- | --- | --- | --- |
| CC1(C)CCc2cc3c(cc2O1)OCC1c2cc4c(cc2OC31)OCO4 (stereo unspecified) | > 100 µM | > 100 µM | > 100 µM | > 100 µM | > 100 µM | > 100 µM | > 100 µM |  |  |  |  |  |  |  |  |  |  |  |  |  |
| O=C1C2=Nc3ccccc3C(O)N2c2ccccc21 (stereo unspecified) | > 100 µM | 29.8 µM |  | > 100 µM | > 100 µM | > 100 µM | > 100 µM | > 100 µM | > 100 µM |  |  |  |  |  |  |  |  |  |  |  |
| CCOc1cc2c(cc1O)/C(=N\O)C[C@@H]1[C@@H]2CC[C@]2(C)[C@@H](O)CC[C@@H]12 | > 100 µM |  | > 100 µM |  | 0.081 µM and 0.0784 µM |  | > 100 µM | 22.5 µM | > 100 µM | 0.0854 µM | 0.0864 µM | 0.0232 µM | 0.0884 µM | 0.00322 µM and 0.0266 µM | 55.6 µM | 0.00629 µM | 0.0234 µM and 0.0382 µM |  |  |  |
| COc1ccc2c(c1)[n+]([O-])c(-c1ccccc1)c(N)[n+]2[O-] | > 100 µM | 47.2 µM |  | > 100 µM | > 100 µM | > 100 µM | > 100 µM |  |  |  |  |  |  |  | > 100 µM |  |  |  |  |  |
| Oc1ccc(O)c(-c2cc(-c3ccccc3)nn2-c2ccccc2)c1 | 80.9 µM |  | > 100 µM | 64.8 µM | > 100 µM | > 100 µM | > 100 µM | 33.7 µM |  | 17.3 µM | 13.4 µM |  | 16.4 µM | 28.5 µM | > 100 µM | 23.9 µM | 26 µM | 31.3 µM | 34 µM |  |
| Cc1ccc(Nc2n[nH]c(=S)s2)cc1 | > 100 µM | > 100 µM | > 100 µM | > 100 µM | > 100 µM | > 100 µM | > 100 µM |  | > 100 µM |  |  |  |  |  |  |  |  |  |  |  |
| CC(=O)c1cccc(NC(=O)C(=O)C(C2OC(=O)c3ccccc32)[N+](=O)[O-])c1 (stereo unspecified) | > 100 µM | > 100 µM | > 100 µM | > 100 µM | > 100 µM | > 100 µM | > 100 µM |  |  |  |  |  |  |  | > 100 µM |  |  |  |  |  |
| O=c1cc(N2CCNCC2)oc2c(-c3ccccc3)cccc12 | 76.2 µM | 56.8 µM |  | > 100 µM | > 100 µM | > 100 µM | > 100 µM | > 100 µM | > 100 µM | 23.3 µM | > 100 µM | 59 µM | 46.3 µM | 39.8 µM | > 100 µM | 34.5 µM | 82.9 µM |  | 51.5 µM | 23.6 µM |
| COc1ccc(N=Nc2c(-c3ccccc3)nn(C(=O)CC(=O)Nc3cccc(Cl)c3)c2-c2ccccc2)cc1 | > 100 µM | > 100 µM |  | > 100 µM | > 100 µM | > 100 µM | > 100 µM |  |  |  |  |  |  |  | > 100 µM |  |  |  |  |  |
| CC(C)(C)CC(C)(C)c1cc2c(O)c(c1)Cc1cc(C(C)(C)CC(C)(C)C)cc(c1O)Cc1cc(C(C)(C)CC(C)(C)C)cc(c1O)Cc1cc(C(C)(C)CC(C)(C)C)cc(c1O)Cc1cc(C(C)(C)CC(C)(C)C)cc(c1O)Cc1cc(C(C)(C)CC(C)(C)C)cc(c1O)C2 | > 100 µM | > 100 µM | > 100 µM | > 100 µM | > 100 µM | > 100 µM | > 100 µM |  |  |  |  |  |  |  | > 100 µM |  |  |  |  |  |
